ChEMBL document CHEMBL1125640

Assay: Hill coefficient value of the compound

Compound | Hill coefficient
COC(=O)[C@@H]1[C@@H](OC(=O)c2ccccc2)CC2CC[C@H]1N2C | 0.95
COC(=O)[C@@H]1[C@H]2CCC(C[C@H]1OC(=O)c1ccccc1)N2C | 1.19
COC(=O)[C@H]1[C@@H](OC(=O)c2ccccc2)CC2CC[C@H]1N2C | 2.6
COC(=O)[C@H]1[C@H]2CCC(C[C@H]1OC(=O)c1ccccc1)N2C | 1.3
COC(=O)[C@H]1[C@@H](OC(=O)c2ccccc2)C[C@@H]2CC[C@H]1N2C (stereo in doubt; 1) | 0.91
COC(=O)[C@H]1[C@@H](OC(=O)c2ccccc2)C[C@@H]2CC[C@H]1N2C (stereo in doubt; 2) | 0.96
COC(=O)C1C2CC[C@H](C[C@H]1OC(=O)c1ccccc1)N2C (stereo in doubt; 3) | 2.81
COC(=O)C1C2CC[C@H](C[C@H]1OC(=O)c1ccccc1)N2C (stereo in doubt; 4) | 0.92
